{"source": "patent US6974665B2", "about": "“In situ screening to optimize variables in organic reactions” (University of Nebraska, priority 2001, dated 2005)", "origin": "cited, not measured here", "key": {"threonine synthase": {"molecular_target": "T1, threonine synthase (Escherichia coli, UniProt P00934)", "T1 sequence (P00934 1-428)": "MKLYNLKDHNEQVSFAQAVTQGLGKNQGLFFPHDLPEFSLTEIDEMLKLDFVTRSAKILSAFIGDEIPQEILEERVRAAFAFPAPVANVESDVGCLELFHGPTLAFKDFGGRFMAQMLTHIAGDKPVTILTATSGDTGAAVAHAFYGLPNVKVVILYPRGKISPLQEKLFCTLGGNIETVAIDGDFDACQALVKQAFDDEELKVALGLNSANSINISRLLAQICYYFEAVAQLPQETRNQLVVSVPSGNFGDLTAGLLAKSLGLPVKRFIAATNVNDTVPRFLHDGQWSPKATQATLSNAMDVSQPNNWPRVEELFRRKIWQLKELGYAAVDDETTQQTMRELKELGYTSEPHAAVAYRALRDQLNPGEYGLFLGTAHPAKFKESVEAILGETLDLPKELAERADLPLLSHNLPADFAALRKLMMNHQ", "details": "irreversible inhibitor"}, "cystathionine γ-synthase": {"molecular_target": "T2, cystathionine γ-synthase (Nicotiana tabacum, UniProt Q9ZPL5)", "T2 sequence (Q9ZPL5 79-540)": "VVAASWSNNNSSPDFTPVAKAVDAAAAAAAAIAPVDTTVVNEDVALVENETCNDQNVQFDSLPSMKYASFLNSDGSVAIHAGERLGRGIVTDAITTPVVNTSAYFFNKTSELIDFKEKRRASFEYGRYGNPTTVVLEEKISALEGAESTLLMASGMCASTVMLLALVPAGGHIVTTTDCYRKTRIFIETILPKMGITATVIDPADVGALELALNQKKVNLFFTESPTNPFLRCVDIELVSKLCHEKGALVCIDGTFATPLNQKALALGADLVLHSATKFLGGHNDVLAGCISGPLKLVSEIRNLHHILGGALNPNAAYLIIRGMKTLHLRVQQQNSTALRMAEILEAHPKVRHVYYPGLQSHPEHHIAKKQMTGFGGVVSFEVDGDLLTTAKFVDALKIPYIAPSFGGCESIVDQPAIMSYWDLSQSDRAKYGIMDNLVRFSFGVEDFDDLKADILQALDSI", "details": "tight-binding reversible inhibitor"}}, "data": [{"smiles": "NC(/C=C/CP(=O)(O)O)C(=O)O", "note": "(stereo not drawn) [APPA, (E)-2-Amino-5-phosphono-3-pentenoic Acid]", "values": [{"measurement": "Ki", "setting": "threonine synthase", "value": 400, "unit": "µM"}, {"measurement": "kinact", "setting": "threonine synthase", "value": 0.25, "unit": "min⁻¹"}, {"measurement": "Ki", "setting": "cystathionine γ-synthase", "value": 27, "unit": "µM"}]}]}
